Measured values as given in patent US11787833B2, “Modified cyclic dinucleoside compounds as sting modulators” (ALIGOS THERAPEUTICS, INC., priority 2019, dated 2023).
Like-named read-outs stand apart in the source and are kept apart here.

Assays:
[1] = molecular target: T1, 293T-Dual hSTING-R232 cells (Homo sapiens, UniProt Q86WV6, H232R); experiment: 293T R232 cell reporter assay (HEK 293T reporter assay); assay type: cell-based; settings: digitonin 10 μg/mL, 30 min exposure, 20 h incubation
T1 construct: host or cells: 293T-Dual hSTING-R232 cells (HEK 293T)
T1 sequence (Q86WV6 whole entry H232R): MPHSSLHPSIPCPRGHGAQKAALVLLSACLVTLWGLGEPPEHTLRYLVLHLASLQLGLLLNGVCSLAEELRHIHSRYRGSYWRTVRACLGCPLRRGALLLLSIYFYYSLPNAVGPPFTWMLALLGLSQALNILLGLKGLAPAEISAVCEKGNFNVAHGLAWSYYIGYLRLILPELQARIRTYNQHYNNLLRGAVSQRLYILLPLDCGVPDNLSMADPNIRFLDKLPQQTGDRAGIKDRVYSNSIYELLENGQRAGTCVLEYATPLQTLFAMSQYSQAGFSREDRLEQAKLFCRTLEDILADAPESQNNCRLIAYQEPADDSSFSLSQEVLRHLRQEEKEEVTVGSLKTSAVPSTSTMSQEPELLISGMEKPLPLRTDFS
Experimental: 293T-Dual hSTING-R232 cells (Invivogen) were plated in 96 well plates at a density of 5×10^4 cells per well in DMEM supplemented with 10% FBS, 1% Pen-Strep, 1% non-essential amino acids, 1% glutamine, and 1% HEPES. Assay setup took place after allowing cells to adhere for 48 h. Compounds dissolved in water were serially diluted in dosing buffer containing 10 μg/mL digitonin. Media was aspirated from the cells, and 50 μL buffer with compound was added in triplicate. After 30 min at 37° C., buffer was aspirated and replaced with 100 μL media. Cells were incubated for 20 h at 37° C., 5% CO2. IFN-beta expression and activation of the interferon regulatory factor (IRF) were measured based on luciferase and alkaline phosphatase reporter activity, respectively. Cell viability was determined in parallel.

CT26 colon carcinoma [2] = experiment: CT26 mouse colon carcinoma in vivo efficacy study, intratumoral dosing; settings: for Cure Rate (TV < 10 mm^3) / Treatment Failure (TV > 2000 mm^3): 100 μg intratumorally, 3 times, three days apart, BALB/c mice
Experimental: (§1) The in vivo antitumoral activity of compounds of Formula (I) were studied in the mouse CT26 colon carcinoma model. 10 female 9-week old BALB/c mice/group were implanted subcutaneously with 3×10^5 cells on the flank. Caliper measurements to assess the tumor volume (TV) and body weight measurements were performed daily for the first 8 days and biweekly thereafter until the end of the study. Dosing started when the tumor volumes reached a size of 100 mm^3. The compounds of Formula (I) were tested in two separate studies with their respective vehicle control. Compounds of Formula (I) were dosed 3 times, three days apart, intratumorally at either 25 or 100 μg. The human endpoint is predefined as a TV of 2000 mm^3.

CT26 colon carcinoma [3] = experiment: CT26 mouse colon carcinoma study, intratumoral or subcutaneous administration; assay type: in vivo
Experimental: as §1
The in vivo antitumoral activity of compounds of Formula (I) after intratumoral of subcutaneous administration was studied in the mouse CT26 colon carcinoma model. The study was performed as in the first paragraph of Example C. Compounds of Formula (I) were dosed 2 or 3 times, three days apart (q3d) or 7 days apart (qw), intratumorally at either […] or subcutaneously at either 1 or 4 mg/kg.

CT26 colon carcinoma [4] = experiment: CT26 mouse colon carcinoma combination study with anti-CTLA-4 (clone 9H10); assay type: in vivo
Experimental: as §1
The in vivo antitumoral activity of compounds of Formula (I) in combination with the immune checkpoint inhibitor anti-CTLA-4 (clone 9H10) was studied in the mouse CT26 colon carcinoma model. The study was performed as described in the first paragraph of Example C.

[5] = alkaline phosphatase reporter, read-out: EC50 [μM] IRF reporter
[6] = luciferase reporter, read-out: EC50 [μM] IRN-β reporter
[7] = three times subcutaneously at 4 mg/kg

SMILES	EC50 [1, 5] [µM]	EC50 [1, 6] [µM]	Cure Rate (TV < 10 mm^3) (CT26 colon carcinoma [2]) [%]	Treatment Failure (TV > 2000 mm^3) (CT26 colon carcinoma [2]) [%]	further results
CO[C@H]1[C@H]2OP(=O)([O-])OC[C@@]34C[C@@H]3[C@@H](n3cnc5c(N)ncnc53)[C@H](O)[C@@H]4OP(=O)([O-])OC[C@H]1O[C@H]2n1cnc2c(=O)[nH]c(N)nc21.[Na+].[Na+] [Compound 1-1]	< 0.25	< 0.25	40	40	tumor-free animals at the end of the study (CT26 colon carcinoma [2]; three intratumoral doses of 100 g, 10 mice/group): 4 out of 10
Nc1ncnc2c1ncn2[C@H]1[C@H](O)[C@@H]2O[P@@](=O)([S][Na])OC[C@H]3O[C@@H](n4cnc5c(=O)[nH]cnc54)[C@H](F)[C@@H]3OP(=O)(O)OC[C@@]23C[C@H]13 [Compound 1-20b]	–	–	50	50	EC50 ([1]; EC50 [μM] IRF reporter, alkaline phosphatase reporter): < 0.25 µM; EC50 ([1]; EC50 [μM] IRN-β reporter, luciferase reporter): < 0.25 µM
Nc1nc2c(ncn2C2OC34COC2C3OP(=O)(O)OCC23CC2C(n2cnc5c(N)ncnc52)C(O)C3OP(=O)(S)OC4)c(=O)[nH]1 (centres unmarked) [Compound 1-21b]	< 0.25	< 0.25	50	50	–
Nc1nc2c(ncn2[C@@H]2O[C@@H]3CO[P@](=O)([S][Na])O[C@H]4[C@@H](O)[C@H](n5cnc6c(N)ncnc65)[C@H]5C[C@]54COP(=O)([O-])O[C@@H]2[C@@H]3F)c(=O)[nH]1.[Na+] [Compound 1-22b]	< 0.25	< 0.25	56	44	–
Nc1nc2c(ncn2C2OC34COC2C3OP(=O)(O)OCC2OC(c3snc5c(N)ncnc35)CC2OP(=O)(O)OC4)c(=O)[nH]1 (centres unmarked) [Compound 1-52]	< 0.25	0.25 to 100	–	–	–
CO[C@H]1[C@H]2OP(=O)(O)OC[C@]34C[C@@H]3[C@@H](n3cnc5c(N)ncnc53)[C@H](O)[C@@H]4O[P@@](=O)([S][Na])OC[C@H]1O[C@H]2n1cnc2c(=O)[nH]c(N)nc21 [Compound 10-b]	–	–	–	–	animals with complete tumor suppression (CT26 colon carcinoma [3]; dosed intratumorally at 100 μg): 4/10; animals with complete tumor suppression (CT26 colon carcinoma [3]; [7]): 1/10; delay of tumor growth (CT26 colon carcinoma [3]; [7]): further delay in tumor growth; delay of tumor growth compared to the vehicle group (CT26 colon carcinoma [3]; two subcutaneous administrations at 4 mg/kg): approx. 8 days; Complete Tumor Suppression (TV < 10 mm^3) (CT26 colon carcinoma [4]; 25 μg, IT/3 × q3d): 0; Treatment Failure (TV > 2000 mm^3) (CT26 colon carcinoma [4]; 25 μg, IT/3 × q3d): 100; delay of tumor growth (CT26 colon carcinoma [4]; three IT doses of 25 g): approx. 8 days
